Results on two molecules are retold here after patent US6667414B2, “Use of propargyl glycine amino propargyl diol compounds for treatment of congestive heart failure” (Pharmacia Corporation, priority 1991, dated 2003).

Molecules are shown by their SMILES. Where a SMILES comes first, the peptide text is derived from it. [ ]: non-standard residue; d: D form. The star is where a group is joined. Sta = CC(C)C[C@H](N)[C@@H](O)CC(=O)O; Isovaleryl = CC(C)CC(=O)*

The target in assay [1] is T1, human renin (Homo sapiens, UniProt P00797).
T1 construct: purchased National Institute for Biological Standards, London
T1 sequence (P00797 67-406): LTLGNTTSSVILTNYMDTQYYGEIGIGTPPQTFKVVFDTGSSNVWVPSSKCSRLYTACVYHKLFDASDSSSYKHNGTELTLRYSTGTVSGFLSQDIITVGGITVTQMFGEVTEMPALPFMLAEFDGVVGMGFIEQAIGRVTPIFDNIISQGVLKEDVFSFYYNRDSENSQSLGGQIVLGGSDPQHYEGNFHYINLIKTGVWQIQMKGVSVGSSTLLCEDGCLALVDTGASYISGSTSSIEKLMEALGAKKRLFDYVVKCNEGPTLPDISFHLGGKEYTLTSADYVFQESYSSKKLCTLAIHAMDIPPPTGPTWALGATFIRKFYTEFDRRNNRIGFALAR
In words: Human renin inhibition in vitro. In kind it is biochemical. Conditions: conversion of angiotensinogen to angiotensin I, 2 h at 37° C., pH 7.4. The method, then: Compounds of Formula I were evaluated as inhibitors of human renin in an in vitro assay, as follows: This human renin inhibition test has been previously described in detail [Papaioannou et al., Clinical and Experimental Hypertension, A7(9), 1243-1257 (1985)-]. Human renin was obtained from the National Institute for Biological Standards, London. An incubation mixture was prepared containing the following components: in a total volume of 0.25 mL: 100 mM Tris-acetate buffer at pH 7.4, 25×10^−6 Goldblatt units of renin, 0.05 mL of plasma from human volunteers taking oral contraceptives, 6.0 mM Na-EDTA, 2.4 mM phenylmethyl sulfonyl fluoride, 1.5 mM 8-hydroxyquinoline, 0.4 mg/mL bovine serum albumin (BSA), and 0.024 mg/mL neomycin sulfate. This mixture was incubated for two hours at 37° C. in the presence or absence of renin inhibitors. The produced angiotensin I was determined by radioimmunoassay (New England Nuclear kit). Test compounds to be assayed were dissolved in DMSO and diluted with 100 mM Tris-acetate buffer at pH 7.4 containing 0.5% BSA to the appropriate concentration. The final concentration of organic solvent in the reaction mixture was less than 1%. Control incubations at 37° C. were used to correct for effects of organic solvent on renin activity.

Assay [2] relates to hog renin. To be noted: after the injection of hog renin into nephrectomized rats; cited from earlier work.

In assay [1], `C#CC[C@H](NC(=O)[C@@H](CC(=O)N(C)CCN(C)C)Cc1ccccc1)C(=O)N[C@@H](CC1CCCCC1)[C@@H](O)[C@@H](O)CC#C` (relative stereo) [Example 1, N1-[1R*-[[[1S,1R*-(cyclohexylmethyl)-2S*,3R*-dihydroxyhexynyl]amino]carbonyl]-3-butynyl]-N-4-[2-(dimethylamino)ethyl]-N-4-methyl-2S*-(phenylmethyl)Butanediamide] yielded an IC50 of 34 nM.
As to `CC(C)CC(=O)N[C@H](C(=O)N[C@H](C(=O)N[C@@H](CC(C)C)[C@@H](O)CC(=O)N[C@@H](C)C(=O)N[C@@H](CC(C)C)[C@@H](O)CC(=O)O)C(C)C)C(C)C` [pepstatin] (Isovaleryl-VV[Sta]A[Sta]-OH), the “blood pressure in vivo” value in assay [2] is “reduce blood pressure”.

As a reminder, the IC50 is the concentration needed to halve the response being measured.
